Here are results for 2 compounds from publication PMC165585 (BMC Structural Biology, 2003).

Test [1] addresses T1, LysU (heat-inducible Escherichia coli lysyl-tRNA synthetase) (Escherichia coli, UniProt P0A8N5).
T1 sequence (P0A8N5 2-505): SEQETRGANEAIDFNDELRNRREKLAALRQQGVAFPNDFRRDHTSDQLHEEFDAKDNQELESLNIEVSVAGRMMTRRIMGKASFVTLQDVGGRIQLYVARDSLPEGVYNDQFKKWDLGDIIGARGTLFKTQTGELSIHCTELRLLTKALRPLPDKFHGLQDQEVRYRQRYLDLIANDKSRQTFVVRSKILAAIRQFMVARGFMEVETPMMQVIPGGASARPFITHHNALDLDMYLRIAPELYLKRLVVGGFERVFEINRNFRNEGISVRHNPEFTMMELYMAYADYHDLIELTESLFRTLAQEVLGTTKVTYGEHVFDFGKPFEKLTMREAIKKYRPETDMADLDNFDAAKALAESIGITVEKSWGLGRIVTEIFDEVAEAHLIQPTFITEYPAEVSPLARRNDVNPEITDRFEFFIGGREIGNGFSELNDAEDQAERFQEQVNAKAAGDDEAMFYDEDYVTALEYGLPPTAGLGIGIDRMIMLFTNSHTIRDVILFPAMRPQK
Put plainly: biochemical.

Test [2] deals with T1, LysU (heat-inducible Escherichia coli lysyl-tRNA synthetase). Briefly: isothermal titration calorimetry. It counts as binding. Background: Isothermal titration calorimetry measures the heat released or taken up as one component is titrated into another.

Take `NCCCC[C@H](N)C(=O)O` [lysine]: the affinity in test [1], expressed as Kd, was 7.96 ± 1.4 µM.
Take `Nc1ncnc2c1ncn2[C@@H]1O[C@H](COP(=O)(O)OP(=O)(O)CP(=O)(O)O)[C@@H](O)[C@H]1O` [AMPPCP, β,γ-methyleneadenosine 5'-triphosphate]: the Kd (commonly the concentration at which binding is half-saturated) in test [2] worked out at 1.22 ± 0.15 µM.
